“Also recorded” adds a separate entry of the source.

Assay [1] deals with orthotopic KPC-derived PDAC tumors. The assay can be described thus: Treatment study in orthotopic syngeneic KPC-derived PDAC mice: tumor weight. The assay is classed as in vivo, mouse. To be noted: 3 times a week for 2 weeks. Here is the method:
Syngeneic PDAC mice were generated by orthotopic pancreatic injections of 5.0×10^5 KPC-derived PDAC cells into 8- to 10-week-old C57B6129SF1/J hybrid mice (Jackson™), which are the offspring of a cross between C57BL/6J females and 129S1/SvImJ males. In some experiments, the tumor growth was measured by luminescence imaging.
The treatment studies in orthotopic syngeneic PDAC mice were performed as follows. Eight days after orthotopic implantation of 5.0×10^5 KPC-derived PDAC cells, the mice were randomized into respective treatment cohorts, such as intravenous (IV) phosphate buffered saline (PBS) alone, IV iRGD alone (300 μg/25 g), IV PBS+IP antimouse PD-L1 mAb (200 μg/mouse; clone MIH6; BioLegend™), IV iRGD+IP anti-mouse PD-L1 mAb, IV PBS+IV Gem (4 mg/kg; MilliporeSigma™), and IV iRGD+IV GEM+IP anti-mouse PD-L1 mAb. The treatment was given 3 times a week for 2 weeks starting 8 days after tumor cell implantation. The tumors and major organs were harvested at the end of the studies on day 22, weighed, and processed for flow cytometry, IF, and IHC. The treatment studies were terminated according to the guidelines by the IACUC at Columbia University. Treatment studies in transgenic KPC mice were performed as previously described.
C57B6129SF1/J hybrid mice bearing orthotopic KPC-derived PDAC tumors were treated with PBS or iRGD 3 times a week for 2 weeks. […]

The test system of assay [2] is Tregs that were expanded in the presence of PDAC cells. The assay can be described thus: FAM-iRGD binding to Tregs expanded with PDAC cells (flow cytometry). On the set-up: species or system mouse. To be noted: flow cytometry MFI. As for the experimental part: The isolated immune cells were subjected to flow cytometry for quality check and to analyze the cell populations of interest. […] The binding was analyzed by flow cytometry.
CD4+ T cells were magnetically isolated from the spleens of healthy C57B6129SF1/J mice using a mouse CD4+ T cell isolation kit (Miltenyi Biotec™). The CD4+ T cells were cultured for 3 days with or without KPC-derived PDAC cells in the presence of low dose anti-CD3/CD28 beads (×40 dilution; Miltenyi Biotec™), TGF-β1 (5 ng/ml; Bio-Techne Corporation™), and recombinant mouse interleukin-2 (mIL-2, 100 U/ml; Roche™), and subjected to flow cytometry as described elsewhere. In some cases, 1.0 mM iRGD was added to the culture in binding buffer supplemented with mIL-2 to study the effect on apoptosis. The cells were then stained with FITC-conjugated annexin V (BioLegend™) and 7-AAD (BioLegend™) for 15 minutes at room temperature to detect apoptotic cells by flow cytometry.
For the data presented in FIG. 16 through FIG. 19, CD4+ T cells isolated from the spleen of healthy C57B6129SF1/J hybrid mice were expanded for 3 days in vitro in the presence of KPC-derived PDAC cells. Flow cytometry was performed for subsequent analyses. […] The bar diagram summarizes the median fluorescence intensity (MFI) from 4 independent experiments. […] Apoptosis was quantitated by measuring annexin V and 7-AAD double positive cells by flow cytometry (n=3).

As to CRGDKGPDC [iRGD], the “tumor growth (tumor weight at end of study)” value in assay [1] was “did not inhibit tumor growth; also recorded: did not affect tumor growth”. Further, the “binding to αvβ5 integrin+ Tregs induced in the presence of PDAC cells” value in assay [2] is recorded as “Binds”.

Values taken from patent publication US20260069694A1, “IDENTIFICATION OF HIGHLY IMMUNOSUPRESIVE TREG POPULATION IN TUMOR MICROENVIRONMENTS” (THE TRUSTEES OF COLUMBIA UNIVERSITY IN THE CITY OF NEW YORK, priority 2023, published 2026).
